Consider 23 compounds from patent US10894807B2 (Siemens Medical Solutions USA, Inc., priority 2011, dated 2021).

The target in the experiment is human PSMA (Homo sapiens (Human), UniProt Q04609). The experiment is described as follows: Enzymatic assay for in vitro evaluation of PSMA inhibitors (fluorescent assay of PSMA activity, NAAG substrate, OPA detection of glutamate). Type of experiment: biochemical. Particulars: for PSMA Blkg % (10 μM): compound at 10 μM.

A value given as a limit tells only on which side of the number the result lay.

Sequence of human PSMA (Q04609 whole entry): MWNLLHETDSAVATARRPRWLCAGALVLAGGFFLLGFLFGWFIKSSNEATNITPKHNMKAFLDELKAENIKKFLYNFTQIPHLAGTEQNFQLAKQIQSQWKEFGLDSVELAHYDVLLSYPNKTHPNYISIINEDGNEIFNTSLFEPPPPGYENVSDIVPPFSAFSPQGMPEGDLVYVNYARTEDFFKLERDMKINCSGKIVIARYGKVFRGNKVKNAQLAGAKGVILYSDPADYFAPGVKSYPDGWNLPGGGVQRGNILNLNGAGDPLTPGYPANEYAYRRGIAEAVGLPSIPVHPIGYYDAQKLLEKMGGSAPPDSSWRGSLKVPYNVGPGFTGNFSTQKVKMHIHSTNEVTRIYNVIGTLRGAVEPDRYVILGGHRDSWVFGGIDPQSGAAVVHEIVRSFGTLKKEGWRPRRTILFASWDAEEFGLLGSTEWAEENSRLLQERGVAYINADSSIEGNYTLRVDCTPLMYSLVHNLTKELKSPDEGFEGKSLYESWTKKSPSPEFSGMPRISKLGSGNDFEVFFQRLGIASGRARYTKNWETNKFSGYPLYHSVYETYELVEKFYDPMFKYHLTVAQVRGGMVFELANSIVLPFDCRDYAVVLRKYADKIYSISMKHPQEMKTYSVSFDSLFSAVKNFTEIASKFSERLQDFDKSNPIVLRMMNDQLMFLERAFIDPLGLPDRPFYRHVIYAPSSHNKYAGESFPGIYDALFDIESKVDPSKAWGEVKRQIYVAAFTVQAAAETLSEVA

As for `O=C(O)CC[C@@H](C(=O)O)N(O)C(=O)N[C@@H](CCCCNC(=O)Cn1cc(CCCF)nn1)C(=O)O` [P148, (S)-2-(3-((S)-1-Carboxy-5-(2-(4-(3-fluoropropyl)-1H-1,2,3-triazol-1-yl)acetamido)pentyl)-1-hydroxyureido)pentanedioic Acid], the affinity, expressed as Ki, was 250 nM and the “PSMA Blkg % (10 μM)” value is 87%. For `COc1ccc(CCNC(=O)N(O)CC(=O)N[C@@H](CCC(=O)O)C(=O)O)cc1OC` [P149, (S)-2-(2-(3-(3,4-Dimethoxyphenethyl)-1-hydroxyureido)acetamido)pentanedioic Acid], the “PSMA Blkg % (10 μM)” value is listed as 0%.

As for `CCC1(CC)C(=O)N([C@@H](CCCCn2cc(CCCF)nn2)C(=O)O)C(=O)N([C@@H](CCC(=O)O)C(=O)O)C1=O` [P150, (S)-2-(3-((S)-1-Carboxy-5-(4-(3-fluoropropyl)-1H-1,2,3-triazol-1-yl)pentyl)-5,5-diethyl-2,4,6-trioxotetrahydropyrimidin-1(2H)-yl)pentanedioic Acid], the “PSMA Blkg % (10 μM)” value was determined as 9%.

As to `CCC1(CC)C(=O)N([C@@H](CCCCn2cc(COCCOCCNc3ccc([N+](=O)[O-])cc3[N+](=O)[O-])nn2)C(=O)O)C(=O)N([C@@H](CCC(=O)O)C(=O)O)C1=O` [P151, (S)-2-(3-((S)-1-Carboxy-5-(4-((2-(2-(2,4-dinitrophenylamino)ethoxy)ethoxy)methyl)-1H-1,2,3-triazol-1-yl)pentyl)-5,5-diethyl-2,4,6-trioxotetrahydropyrimidin-1(2H)-yl)pentanedioic Acid], the “PSMA Blkg % (10 μM)” value is given as 17%. Regarding `O=C(O)CC[C@@H](C(=O)O)N(O)C(=O)N[C@@H](CCCCNC(=O)c1ccc(-n2cc(CCCF)nn2)cc1)C(=O)O` [P152, (S)-2-(3-((S)-1-Carboxy-5-(4-(4-(3-fluoropropyl)-1H-1,2,3-triazol-1-yl)benzamido)pentyl)-1-hydroxyureido)pentanedioic Acid], the affinity corresponds to a Ki of 128 nM and the “PSMA Blkg % (10 μM)” value came to 93%. As for `N#C/N=C(/N[C@@H](CCCCNC(=O)c1ccc(-n2cc(CCCF)nn2)cc1)C(=O)O)N[C@@H](CCC(=O)O)C(=O)O` [P153, (S)-2-(3-((S)-1-Carboxy-5-(4-(4-(3-fluoropropyl)-1H-1,2,3-triazol-1-yl)benzamido)pentyl)-2-cyanoguanidino)pentanedioic Acid], the “PSMA Blkg % (10 μM)” value is given as 63%. Consider `O=C(O)CC[C@H](NC(=O)CN(O)C(=O)CCCc1ccc(F)cc1)C(=O)O` [P154, (S)-2-(2-(4-(4-Fluorophenyl)-N-hydroxybutanamido)acetamido)pentanedioic Acid], for which the “PSMA Blkg % (10 μM)” value was found to be 50%. Regarding `O=C(O)CC[C@H](NC(=O)N[C@@H](CCCCNC(=O)c1ccc(F)cc1)C(=O)O)C(=O)O` [P155], the Ki was 3.1 nM and the “PSMA Blkg % (10 μM)” value is reported as 97%.

On to `CN(C(=O)N[C@@H](CCC(=O)O)C(=O)O)[C@@H](CCCCNC(=O)c1ccc(F)cc1)C(=O)O` [P156, (S)-2-(3-((S)-1-Carboxy-5-(4-fluorobenzamido)pentyl)-3-methylureido)pentanedioic Acid], for which the Ki was 219 nM and the “PSMA Blkg % (10 μM)” value turned out to be 87%. In the case of `CC(F)C(=O)Nc1ccc(C(=O)NCCCC[C@@H](C(=O)O)N(O)C(=O)N[C@@H](CCC(=O)O)C(=O)O)cc1` (stereo partly drawn) [P157, (2S)-2-(3-((1S)-1-Carboxy-5-(4-(2-fluoropropanamido)benzamido)pentyl)-3-hydroxyureido)pentanedioic Acid], the Ki was > 313 nM and the “PSMA Blkg % (10 μM)” value worked out at 79%. Consider `CC(F)C(=O)Nc1ccc(C(=O)NCCCCC(C(=O)O)N(C)C(=O)N[C@@H](CCC(=O)O)C(=O)O)cc1` (stereo partly drawn) [P158, (2S)-2-(3-((S)-1-Carboxy-5-(4-(2-fluoropropanamido)benzamido)pentyl)-3-methylureido)pentanedioic Acid], for which the affinity corresponds to a Ki of 34.4 nM and the “PSMA Blkg % (10 μM)” value was 99%.

As to `CN(C(=O)[C@H](CC(=O)O)NC(=O)c1ccc(-n2cc(CCCF)nn2)cc1)[C@@H](CCC(=O)O)C(=O)O` [P159, (S)-2-((S)-3-Carboxy-2-(4-(4-(3-fluoropropyl)-1H-1,2,3-triazol-1-yl)benzamido)-N-methylpropanamido)pentanedioic Acid], the “PSMA Blkg % (10 μM)” value was 39%. For the compound `CN(C(=O)N[C@@H](CCC(=O)O)C(=O)O)[C@@H](CCCCNC(=O)c1ccc(OCCF)cc1)C(=O)O` [P161], the “PSMA Blkg % (10 μM)” value is listed as 96%.

`O=C(O)CC[C@@H](C(=O)O)N(O)C(=O)N[C@@H](CCCCNC(=O)c1ccc(F)cc1)C(=O)O` [P162, (S)-2-(3-((S)-1-Carboxy-5-(4-fluorobenzamido)pentyl)-1-hydroxyureido)pentanedioic Acid]: the Ki was > 531 nM and the “PSMA Blkg % (10 μM)” value came to 79%. With `CN(C(=O)[C@H](CC(=O)O)NC(=O)c1ccc(F)cc1)[C@@H](CCC(=O)O)C(=O)O` [P163, (S)-2-((S)-3-Carboxy-2-(4-fluorobenzamido)-N-methylpropanamido)pentanedioic Acid], the “PSMA Blkg % (10 μM)” value is 0%. On to `O=C(O)CC[C@H](NC(=O)N(O)[C@@H](CCCCNC(=O)c1ccc(NC(=O)c2ccc(F)nc2)cc1)C(=O)O)C(=O)O` [P164, (S)-2-(3-((S)-1-Carboxy-5-(4-(6-fluoronicotinamido)benzamido)pentyl)-3-hydroxyureido)pentanedioic Acid], for which the Ki was > 407 nM and the “PSMA Blkg % (10 μM)” value amounted to 80%. Turning to `O=C(O)/C=C/C(=O)N[C@@H](CCC(=O)O)C(=O)O` [P165], the “PSMA Blkg % (10 μM)” value is 11%. In the case of `O=C(O)CC[C@H](NC(=O)N(O)[C@@H](CCCCNC(=O)Cn1cc(CCCF)nn1)C(=O)O)C(=O)O` [P166, (S)-2-(3-((S)-1-Carboxy-5-(2-(4-(3-fluoropropyl)-1H-1,2,3-triazol-1-yl)acetamido)pentyl)-3-hydroxyureido)pentanedioic Acid], the Ki is > 375 nM and the “PSMA Blkg % (10 μM)” value is reported as 87%. For `O=C(O)CC[C@H](NC(=O)N(O)[C@@H](CCCCNC(=O)c1ccc(OCCF)cc1)C(=O)O)C(=O)O` [P167, (S)-2-(3-((S)-1-Carboxy-5-(4-(2-fluoroethoxy)benzamido)pentyl)-3-hydroxyureido)pentanedioic Acid] the same measures were > 657 nM and 93%. As for `C#Cc1ccc(C(=O)NCCCC[C@@H](C(=O)O)N(O)C(=O)N[C@@H](CCC(=O)O)C(=O)O)cc1` [P168, (S)-2-(3-((S)-1-Carboxy-5-(4-ethynylbenzamido)pentyl)-3-hydroxyureido)pentanedioic Acid], the “PSMA Blkg % (10 μM)” value is reported as 98%. `O=C(O)CC[C@H](NC(=O)N(O)[C@@H](CCCCNC(=O)c1ccc(F)cc1)C(=O)O)C(=O)O` [P169, (S)-2-(3-((S)-1-Carboxy-5-(4-fluorobenzamido)pentyl)-3-hydroxyureido)pentanedioic Acid]: affinity was put at a Ki of 156 nM and the “PSMA Blkg % (10 μM)” value turned out to be 79%. Turning to `CN(C(=O)[C@H](CC(=O)O)NC(=O)CCc1ccc(-n2cc(CCCF)nn2)cc1)[C@@H](CCC(=O)O)C(=O)O` [P170, (S)-2-((S)-3-Carboxy-2-(3-(4-(4-(3-fluoropropyl)-1H-1,2,3-triazol-1-yl)phenyl)propanamido)-N-methylpropanamido)pentanedioic Acid], the “PSMA Blkg % (10 μM)” value stood at 58%. Take `O=C(O)CC[C@H](NC(=O)N(O)C(CCCCNC(=O)c1ccc(NC(=O)c2ccc(F)cc2)cc1)C(=O)O)C(=O)O` (stereo partly shown) [P171]: the “PSMA Blkg % (10 μM)” value was 87%.
